Source: ChEMBL document CHEMBL1147697, “Synthesis and structure-activity relationship of a novel, achiral series of TNF-alpha converting enzyme inhibitors” (Bioorg Med Chem Lett, 2006)
Each block holds one compound with its values, some of them ahead of it.

Assays:
[1] = Dissociation constant, pKa of the compound; type: physicochemical
[2] = Partition coefficient, logP of the compound; type: physicochemical; details: octanol/water
[3] = Volume of distribution in Sprague-Dawley rat at 2 mg/kg, iv; type: ADME, organism-based; design: dose 2 mg/kg, route intravenous; details: in vivo, read-out: Vdss
[4] = Tmax in Sprague-Dawley rat at 30 mg/kg, po; type: ADME, organism-based; design: dose 30 mg/kg, route oral; details: in vivo
[5] = Cmax in Sprague-Dawley rat at 30 mg/kg, po; type: ADME, organism-based; design: dose 30 mg/kg, route oral; details: in vivo
[6] = AUC in Sprague-Dawley rat at 2 mg/kg, iv; type: ADME, organism-based; design: dose 2 mg/kg, route intravenous; details: plasma
[7] = AUC in Sprague-Dawley rat at 30 mg/kg, po; type: ADME, organism-based; design: dose 30 mg/kg, route oral; details: plasma
[8] = Oral bioavailability in Sprague-Dawley rat at 30 mg/kg, po; type: ADME, organism-based; details: in vivo
[9] = Stability in chimp liver S9 fraction after 30 mins; type: ADME, Pan troglodytes; details: chimpanzee, read-out: Stability
[10] = Stability in human liver S9 fraction after 30 mins; type: ADME, organism-based; details: read-out: Stability
[11] = Clearance in Beagle dog at 2 mg/kg, iv; type: ADME, organism-based, Canis lupus familiaris; design: dose 2 mg/kg, route intravenous; details: in vivo
[12] = Half life in Beagle dog at 2 mg/kg, iv; type: ADME, organism-based, Canis lupus familiaris; design: dose 2 mg/kg, route intravenous; details: in vivo
[13] = Half life in Beagle dog at 10 mg/kg, po; type: ADME, organism-based, Canis lupus familiaris; design: dose 10 mg/kg, route oral; details: in vivo
[14] = Volume of distribution in Beagle dog at 2 mg/kg, iv; type: ADME, organism-based, Canis lupus familiaris; design: dose 2 mg/kg, route intravenous; details: in vivo, read-out: Vdss
[15] = Tmax in Beagle dog at 10 mg/kg, po; type: ADME, organism-based, Canis lupus familiaris; design: dose 10 mg/kg, route oral; details: in vivo
[16] = Cmax in Beagle dog at 10 mg/kg, po; type: ADME, organism-based, Canis lupus familiaris; design: dose 10 mg/kg, route oral; details: in vivo
[17] = AUC in Beagle dog at 2 mg/kg, iv; type: ADME, organism-based, Canis lupus familiaris; design: dose 2 mg/kg, route intravenous; details: plasma
[18] = AUC in Beagle dog at 10 mg/kg, po; type: ADME, organism-based, Canis lupus familiaris; design: dose 10 mg/kg, route oral; details: plasma
[19] = Oral bioavailability in Beagle dog at 10 mg/kg, po; type: ADME, organism-based, Canis lupus familiaris; details: in vivo
[20] = Clearance in Sprague-Dawley rat at 2 mg/kg, iv; type: ADME, organism-based; design: dose 2 mg/kg, route intravenous; details: in vivo
[21] = Half life in Sprague-Dawley rat at 2 mg/kg, iv; type: ADME, organism-based; design: dose 2 mg/kg, route intravenous; details: in vivo
[22] = Half life in Sprague-Dawley rat at 30 mg/kg, po; type: ADME, organism-based; design: dose 30 mg/kg, route oral; details: in vivo
[23] = Clearance in Beagle dog at 0.5 mg/kg, iv; type: ADME, organism-based, Canis lupus familiaris; design: dose 0.5 mg/kg, route intravenous; details: in vivo
[24] = Half life in Beagle dog at 0.5 mg/kg, iv; type: ADME, organism-based, Canis lupus familiaris; design: dose 0.5 mg/kg, route intravenous; details: in vivo
[25] = Half life in Beagle dog at 1 mg/kg, po; type: ADME, organism-based, Canis lupus familiaris; design: dose 1 mg/kg, route oral; details: in vivo
[26] = Volume of distribution in Beagle dog at 0.5 mg/kg, iv; type: ADME, organism-based, Canis lupus familiaris; design: dose 0.5 mg/kg, route intravenous; details: in vivo, read-out: Vdss
[27] = Tmax in Beagle dog at 1 mg/kg, po; type: ADME, organism-based, Canis lupus familiaris; design: dose 1 mg/kg, route oral; details: in vivo
[28] = Cmax in Beagle dog at 1 mg/kg, po; type: ADME, organism-based, Canis lupus familiaris; design: dose 1 mg/kg, route oral; details: in vivo
[29] = AUC in Beagle dog at 0.5 mg/kg, iv; type: ADME, organism-based, Canis lupus familiaris; design: dose 0.5 mg/kg, route intravenous; details: plasma
[30] = AUC in Beagle dog at 1 mg/kg, po; type: ADME, organism-based, Canis lupus familiaris; design: dose 1 mg/kg, route oral; details: plasma
[31] = Oral bioavailability in Beagle dog at 1 mg/kg, po; type: ADME, organism-based, Canis lupus familiaris; details: in vivo
[32] = Clearance in Sprague-Dawley rat at 3.3 mg/kg, iv; type: ADME, organism-based; design: dose 3.3 mg/kg, route intravenous; details: in vivo
[33] = Half life in Sprague-Dawley rat at 3.3 mg/kg, iv; type: ADME, organism-based; design: dose 3.3 mg/kg, route intravenous; details: in vivo
[34] = Half life in Sprague-Dawley rat at 6.7 mg/kg, po; type: ADME, organism-based; design: dose 6.7 mg/kg, route oral; details: in vivo
[35] = Volume of distribution in Sprague-Dawley rat at 3.3 mg/kg, iv; type: ADME, organism-based; design: dose 3.3 mg/kg, route intravenous; details: in vivo, read-out: Vdss
[36] = Tmax in Sprague-Dawley rat at 6.7 mg/kg, po; type: ADME, organism-based; design: dose 6.7 mg/kg, route oral; details: in vivo
[37] = Cmax in Sprague-Dawley rat at 6.7 mg/kg, po; type: ADME, organism-based; design: dose 6.7 mg/kg, route oral; details: in vivo
Rattus norvegicus [38] = assay: AUC in Sprague-Dawley rat at 3.3 mg/kg, iv; type: ADME, organism-based, Plasma; design: dose 3.3 mg/kg, route intravenous; details: in vivo
[39] = Stability in rat liver S9 fraction after 30 mins; type: ADME, organism-based; details: read-out: Stability
[40] = Stability in dog liver S9 fraction after 30 mins; type: ADME, organism-based, Canis lupus familiaris; details: read-out: Stability
Rattus norvegicus [41] = assay: AUC in Sprague-Dawley rat at 6.7 mg/kg, po; type: ADME, organism-based, Plasma; design: dose 6.7 mg/kg, route oral; details: in vivo
Rattus norvegicus [42] = assay: Oral bioavailability in Sprague-Dawley rat at 6.7 mg/kg, po; type: ADME, organism-based; details: in vivo

- pKa [1]: 10.1
- logP [2]: 1.62
SMILES: Cc1cc(COc2ccc(C(=O)NC3(CC(=O)NO)CCCCC3)cc2)c2ccccc2n1

- pKa [1]: 9
- logP [2]: 1.95
SMILES: Cc1cc(COc2ccc(C(=O)NC3(CC(=O)NO)CCN(C(C)(C)C)CC3)cc2)c2ccccc2n1

- pKa [1]: 7.23
- logP [2]: 2.78
SMILES: Cc1cc(COc2ccc(C(=O)NC3(CC(=O)NO)CCN(C4=NCCS4)CC3)cc2)c2ccccc2n1

- pKa [1]: 7.2
- logP [2]: 2.7
SMILES: Cc1cc(COc2ccc(C(=O)NC3(CC(=O)NO)CCN(CCF)CC3)cc2)c2ccccc2n1

- pKa [1]: 7.75
- logP [2]: 3.66
SMILES: Cc1cc(COc2ccc(C(=O)NC3(CC(=O)NO)CCN(CC(C)(C)C)CC3)cc2)c2ccccc2n1

- Vd [3]: 0.7 L/kg
- Tmax [4]: 0.4 h
- Cmax [5]: 3.75 µM
- AUC [6]: 2.21 µM·h
- AUC [7]: 4.86 µM·h
- bioavailability [8]: 15%
- remaining at 0.5 h [9]: 36.7%
- remaining at 0.5 h [10]: 83.8%
- clearance [11]: 38.3 mL/min/kg
- half-life [12]: 4.2 h
- half-life [13]: 4 h
- Vd [14]: 2.5 L/kg
- Tmax [15]: 0.75 h
- Cmax [16]: 4.49 µM
- AUC [17]: 1.97 µM·h
- AUC [18]: 7.72 µM·h
- bioavailability [19]: 79%
- clearance [20]: 26.7 mL/min/kg
- half-life [21]: 0.3 h
- half-life [22]: 1.8 h
SMILES: Cc1cc(COc2ccc(C(=O)NC3(CC(=O)NO)CCOCC3)cc2)c2ccccc2n1

- pKa [1]: 6.58
- logP [2]: 3.43
SMILES: C#CC(C)(C)N1CCC(CC(=O)NO)(NC(=O)c2ccc(OCc3cc(C)nc4ccccc34)cc2)CC1

- pKa [1]: 8.4
- logP [2]: 2.13
- clearance [23]: 5 mL/min/kg
- half-life [24]: 1.5 h
- half-life [25]: 2.1 h
- Vd [26]: 0.3 L/kg
- Tmax [27]: 0.63 h
- Cmax [28]: 0.126 µM
- AUC [29]: 2.19 µM·h
- AUC [30]: 0.343 µM·h
- bioavailability [31]: 8%
- clearance [32]: 10 mL/min/kg
- half-life [33]: 2.1 h
- half-life [34]: 2.2 h
- Vd [35]: 0.3 L/kg
- Tmax [36]: 0.3 h
- Cmax [37]: 2.48 µM
- AUC (Rattus norvegicus [38]): 11.359 µM·h
- remaining at 0.5 h [39]: 100%
- remaining at 0.5 h [40]: 100%
- remaining at 0.5 h [9]: 100%
- remaining at 0.5 h [10]: 92%
- AUC (Rattus norvegicus [41]): 8.358 µM·h
- F (Rattus norvegicus [42]): 17%
SMILES: Cc1cc(COc2ccc(C(=O)NC3(CC(=O)NO)CCNCC3)cc2)c2ccccc2n1

- pKa [1]: 6.06
- logP [2]: 2.48
SMILES: CCS(=O)(=O)CCN1CCC(CC(=O)NO)(NC(=O)c2ccc(OCc3cc(C)nc4ccccc34)cc2)CC1
